In PubChem BioAssay AID256 (DTP/NCI, 2004):
“And” between values parts separate entries of the source, which are not always exact repeats. Equal entries are not always repeated. Inconclusive results and toxic doses are left out. How the source made its calls: active means survival T/C of 150% or more; inactive means T/C below 125% in these data.

Test system: CD2F1 mice, L1210 leukemia ip, survival T/C
Assay: NCI In Vivo Anticancer Drug Screen. Data for tumor model L1210 Leukemia (intraperitoneal) in CD2F1 (CDF1) mice
Conditions: higher = longer survival
In short: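 Read-out first: treated-group measurement over vehicle-control measurement, expressed as a ratio. Animals bore a transplanted tumor line and were dosed with compound or vehicle.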

[1] = endpoint: mean survival time, dose: 100.0 mg/kg/injection, schedule: Q01DX009 (ip), vehicle: saline with Tween-80
[2] = endpoint: mean survival time, dose: 200.0 mg/kg/injection, schedule: Q01DX009 (ip), vehicle: saline with Tween-80
[3] = endpoint: mean survival time, dose: 400.0 mg/kg/injection, schedule: Q01DX009 (ip), vehicle: saline with Tween-80
[4] = endpoint: mean survival time, dose: 100.0 mg/kg/injection, schedule: Q04DX003 (ip), vehicle: saline with Tween-80
[5] = endpoint: mean survival time, dose: 200.0 mg/kg/injection, schedule: Q04DX003 (ip), vehicle: saline with Tween-80
[6] = endpoint: mean survival time, dose: 400.0 mg/kg/injection, schedule: Q04DX003 (ip), vehicle: saline with Tween-80
[7] = endpoint: mean survival time, dose: 100.0 mg/kg/injection, schedule: Q04DX002 (ip), vehicle: saline
[8] = endpoint: mean survival time, dose: 200.0 mg/kg/injection, schedule: Q04DX002 (ip), vehicle: saline
[9] = endpoint: mean survival time, dose: 400.0 mg/kg/injection, schedule: Q04DX002 (ip), vehicle: saline
[10] = endpoint: mean survival time, dose: 25.0 mg/kg/injection, schedule: Q01DX005 (ip), vehicle: distilled water + Tween-80
[11] = endpoint: mean survival time, dose: 50.0 mg/kg/injection, schedule: Q01DX005 (ip), vehicle: distilled water + Tween-80
[12] = endpoint: mean survival time, dose: 12.5 mg/kg/injection, schedule: Q01DX009 (ip), vehicle: saline with Tween-80
[13] = endpoint: mean survival time, dose: 25.0 mg/kg/injection, schedule: Q01DX009 (ip), vehicle: saline with Tween-80
[14] = endpoint: mean survival time, dose: 50.0 mg/kg/injection, schedule: Q01DX009 (ip), vehicle: saline with Tween-80

Measured: T/C

CCC(CC)CN1CCSC1=S
inactive: [1] 101 % of control | [2] 101 % of control | [3] 96 % of control

Cc1ccc(S(=O)(=O)O/N=C2/CCC(C)(C)c3ccccc32)cc1
inactive: [1] 102 % of control | [4] 102 % of control | [2] 102 % of control | [5] 103 % of control | [3] 94 % of control | [6] 96 % of control

CC(=O)OC1CCC2C3CCC4(C)C(C(C)CCCC(C)C)CCC4C3CC(C)(O)C2C1 (stereo unspecified)
inactive: endpoint: mean survival time, dose: 100.0 mg/kg/injection, schedule: Q01DX001 (sc), vehicle: steriod suspending solution 101 % of control | endpoint: mean survival time, dose: 200.0 mg/kg/injection, schedule: Q01DX001 (sc), vehicle: steriod suspending solution 101 % of control | endpoint: mean survival time, dose: 400.0 mg/kg/injection, schedule: Q01DX001 (sc), vehicle: steriod suspending solution 101 % of control

O=C(O)c1cc(C(=O)O)c(-c2ccccc2)c(-c2ccccc2)c1
inactive: endpoint: mean survival time, dose: 100.0 mg/kg/injection, schedule: Q01DX001 (ip), vehicle: saline 97 % of control | endpoint: mean survival time, dose: 200.0 mg/kg/injection, schedule: Q01DX001 (ip), vehicle: saline 97 % of control | endpoint: mean survival time, dose: 400.0 mg/kg/injection, schedule: Q01DX001 (ip), vehicle: saline 101 % of control

Cn1cccnc1=O
inactive: [7] 106 % of control | [8] 95 % of control | [9] 106 % of control

[Cl][Mo]([Cl])([Cl])[Cl].[Cl][Mo]([Cl])([Cl])[Cl]
inactive: [7] 112 % of control | [8] 87 % of control | [9] 108 % of control

COc1ccc2c(Br)cccc2c1
inactive: endpoint: mean survival time, dose: 100.0 mg/kg/injection, schedule: Q04DX003 (ip), vehicle: acetone 102 % of control | endpoint: mean survival time, dose: 200.0 mg/kg/injection, schedule: Q04DX003 (ip), vehicle: acetone 94 % of control | endpoint: mean survival time, dose: 400.0 mg/kg/injection, schedule: Q04DX003 (ip), vehicle: acetone 92 % of control

O=C(O)CC(=O)O.OC(CN=Cc1ccccc1)CN=Cc1ccccc1.[Pt] (stereo unspecified)
inactive: endpoint: median survival time, dose: 10.0 mg/kg/injection, schedule: Q04DX003 (ip), vehicle: distilled water + Tween-80 103 % of control | endpoint: median survival time, dose: 20.0 mg/kg/injection, schedule: Q04DX003 (ip), vehicle: distilled water + Tween-80 104 % of control | endpoint: median survival time, dose: 40.0 mg/kg/injection, schedule: Q04DX003 (ip), vehicle: distilled water + Tween-80 102 % of control | endpoint: median survival time, dose: 80.0 mg/kg/injection, schedule: Q04DX003 (ip), vehicle: distilled water + Tween-80 116 % of control and 105 % of control | endpoint: median survival time, dose: 160.0 mg/kg/injection, schedule: Q04DX003 (ip), vehicle: distilled water + Tween-80 108 % of control | endpoint: median survival time, dose: 320.0 mg/kg/injection, schedule: Q04DX003 (ip), vehicle: distilled water + Tween-80 109 % of control

O=[N+]([O-])c1cccc2c(S(=O)(=O)O)cccc12
inactive: [4] 102 % of control | [5] 98 % of control

N#CC(C#N)=NNc1ccc(S(=O)(=O)c2ccc(NN=C(C#N)C#N)cc2)cc1
inactive: [1] 103 % of control | [2] 100 % of control | [3] 103 % of control

O=P(Nc1ccccc1)(Oc1c(F)c(F)c(F)c(F)c1F)N(CCCl)CCCl (stereo unspecified)
inactive: endpoint: mean survival time, dose: 62.5 mg/kg/injection, schedule: Q01DX001 (ip), vehicle: other 87 % of control | endpoint: mean survival time, dose: 125.0 mg/kg/injection, schedule: Q01DX001 (ip), vehicle: other 107 % of control | endpoint: mean survival time, dose: 250.0 mg/kg/injection, schedule: Q01DX001 (ip), vehicle: other 96 % of control | endpoint: mean survival time, dose: 500.0 mg/kg/injection, schedule: Q01DX001 (ip), vehicle: other 96 % of control

COc1cc(NC(C)=O)c2ncccc2c1Br
inactive: [4] 104 % of control | [5] 97 % of control | [6] 92 % of control

CNC1=C(C)C(=O)C2=C(C1=O)C(COC(N)=O)C1(O)C3C(CN21)N3C (stereo unspecified)
inactive: endpoint: mean survival time, dose: 1.5 mg/kg/injection, schedule: Q01DX001 (ip), vehicle: water 98 % of control | endpoint: mean survival time, dose: 3.0 mg/kg/injection, schedule: Q01DX001 (ip), vehicle: water 100 % of control | endpoint: mean survival time, dose: 6.0 mg/kg/injection, schedule: Q01DX001 (ip), vehicle: water 100 % of control | endpoint: mean survival time, dose: 12.0 mg/kg/injection, schedule: Q01DX001 (ip), vehicle: water 100 % of control | endpoint: mean survival time, dose: 24.0 mg/kg/injection, schedule: Q01DX001 (ip), vehicle: water 98 % of control | endpoint: mean survival time, dose: 48.0 mg/kg/injection, schedule: Q01DX001 (ip), vehicle: water 115 % of control | endpoint: mean survival time, dose: 96.0 mg/kg/injection, schedule: Q01DX001 (ip), vehicle: water 108 % of control

CNc1nc2c(N)ncnc2n1C1OC(CO)C(O)C1O (stereo unspecified)
inactive: endpoint: mean survival time, dose: 3.12 mg/kg/injection, schedule: Q01DX009 (ip), vehicle: saline 95 % of control | endpoint: mean survival time, dose: 6.25 mg/kg/injection, schedule: Q01DX009 (ip), vehicle: saline 106 % of control | endpoint: mean survival time, dose: 12.5 mg/kg/injection, schedule: Q01DX009 (ip), vehicle: saline 106 % of control and 107 % of control | endpoint: mean survival time, dose: 12.5 mg/kg/injection, schedule: Q04DX002 (ip), vehicle: saline 98 % of control | [10] 96 % of control | endpoint: mean survival time, dose: 25.0 mg/kg/injection, schedule: Q01DX009 (ip), vehicle: saline 115 % of control and 101 % of control | endpoint: mean survival time, dose: 25.0 mg/kg/injection, schedule: Q04DX002 (ip), vehicle: saline 102 % of control | [11] 103 % of control | endpoint: mean survival time, dose: 50.0 mg/kg/injection, schedule: Q01DX009 (ip), vehicle: saline 102 % of control | endpoint: mean survival time, dose: 50.0 mg/kg/injection, schedule: Q04DX002 (ip), vehicle: saline 112 % of control | endpoint: mean survival time, dose: 100.0 mg/kg/injection, schedule: Q01DX005 (ip), vehicle: distilled water + Tween-80 100 % of control | endpoint: mean survival time, dose: 100.0 mg/kg/injection, schedule: Q01DX009 (ip), vehicle: saline 108 % of control | endpoint: mean survival time, dose: 200.0 mg/kg/injection, schedule: Q01DX005 (ip), vehicle: distilled water + Tween-80 96 % of control | endpoint: mean survival time, dose: 400.0 mg/kg/injection, schedule: Q01DX005 (ip), vehicle: distilled water + Tween-80 101 % of control

O=C(O)CC/C(=N\O)c1cccc([N+](=O)[O-])c1
inactive: [4] 102 % of control | [5] 102 % of control | [6] 98 % of control

COc1ccc(C(=Cc2cc(OC(C)=O)c3ccccc3c2OC(C)=O)c2ccc(OC)cc2)cc1
inactive: [4] 97 % of control | [5] 89 % of control | [6] 91 % of control

CCCCCC(=O)/C=C/Sc1n[nH]c(=O)[nH]c1=O
inactive: endpoint: mean survival time, dose: 12.5 mg/kg/injection, schedule: Q01DX005 (ip), vehicle: distilled water + Tween-80 96 % of control | [10] 100 % of control | [11] 104 % of control

CN(C)c1ccc(/C=C(\C#N)c2ccc(Cl)cc2)c(Cl)c1
inactive: [1] 90 % of control | [4] 86 % of control | [2] 94 % of control | [5] 89 % of control | [3] 90 % of control | [6] 86 % of control

CC(C)(C)NCC(CN(CC(CNC(C)(C)C)C(=O)c1ccccc1)C(C)(C)C)C(=O)c1ccccc1 (stereo unspecified)
inactive: endpoint: mean survival time, dose: 12.5 mg/kg/injection, schedule: Q04DX003 (ip), vehicle: Klucel (hydroxypropylcellulose) (HPC) 98 % of control | endpoint: mean survival time, dose: 25.0 mg/kg/injection, schedule: Q04DX003 (ip), vehicle: Klucel (hydroxypropylcellulose) (HPC) 96 % of control | endpoint: mean survival time, dose: 50.0 mg/kg/injection, schedule: Q04DX003 (ip), vehicle: Klucel (hydroxypropylcellulose) (HPC) 102 % of control

Cc1sc(C)c(CCl)c1CCl
inactive: [12] 104 % of control | [13] 108 % of control | [14] 98 % of control

O=S1(=O)C=Cc2ccccc2O1
inactive: endpoint: mean survival time, dose: 75.0 mg/kg/injection, schedule: Q01DX009 (ip), vehicle: saline 102 % of control | endpoint: mean survival time, dose: 75.0 mg/kg/injection, schedule: Q04DX003 (ip), vehicle: saline 97 % of control | endpoint: mean survival time, dose: 150.0 mg/kg/injection, schedule: Q01DX009 (ip), vehicle: saline 102 % of control | endpoint: mean survival time, dose: 150.0 mg/kg/injection, schedule: Q04DX003 (ip), vehicle: saline 95 % of control | endpoint: mean survival time, dose: 300.0 mg/kg/injection, schedule: Q01DX009 (ip), vehicle: saline 100 % of control | endpoint: mean survival time, dose: 300.0 mg/kg/injection, schedule: Q04DX003 (ip), vehicle: saline 97 % of control

Cc1ccc(C(=O)C=C(C(F)(F)F)C(F)(F)F)cc1
inactive: endpoint: mean survival time, dose: 6.25 mg/kg/injection, schedule: Q01DX009 (ip), vehicle: saline with Tween-80 102 % of control | [12] 98 % of control | [13] 98 % of control

Cc1nc2n3c(nc(C)c13)=CCC2
inactive: [13] 96 % of control | [14] 98 % of control | [1] 93 % of control | [4] 97 % of control

CSC(=S)N/N=C/c1ccccn1
inactive: [14] 97 % of control | [1] 98 % of control | [4] 103 % of control | [5] 94 % of control
